The text below walks through data of US20080033020A1, “3-Pyridinylethylbenzamide Derivatives as Fungicides” (priority 2004, published 2008).

The subject of assay [1] is Peronospora parasitica. The assay can be described thus: Efficacy against Peronospora parasitica (comparative compound). It is filed as in vivo. To be noted: at 330 ppm; comparative compound of WO 01/11965.
The test system of assay [2] is Alternaria brassicae. As to the kind of experiment: In vivo test on Alternaria brassicae (leaf spot of crucifers) on radish plants. To be noted: at 330 ppm; comparative compounds of WO 01/11965. As to the method:
The active ingredient tested is prepared by potter homogenisation in a concentrated suspension type formulation at 100 g/l. This suspension is then diluted with water to obtain the desired active material concentration.
Radish plants (Pernot variety) in starter cups, sown on a 50/50 peat soil-pozzolana substrate and grown at 18-20° C., are treated at the cotyledon stage by spraying with the aqueous suspension described above.
Plants, used as controls, are treated with an aqueous solution not containing the active material.
After 24 hours, the plants are contaminated by spraying them with an aqueous suspension of Alternaria brassicae spores (40,000 spores per cm^3). The spores are collected from a 12 to 13 days-old culture.
The contaminated radish plants are incubated for 6-7 days at about 18° C., under a humid atmosphere.
Grading is carried out 6 to 7 days after the contamination, in comparison with the control plants.
Under these conditions, good (at least 50%) or total protection is observed at a dose of 330 ppm or 110 ppm with the following compounds: 1, 2, 3, 4, 5, 6, 7, 8, 9, 10 and 11.

Assay [3] deals with Botrytis cinerea. The assay can be described thus: Effectiveness on Botrytis cinerea (comparative compounds). It is filed as in vivo. To be noted: at 330 ppm; comparative compounds of WO 01/11965.

Regarding `O=C(Cc1cccs1)NCc1ncc(C(F)(F)F)cc1Cl` [compound 101, N-{[3-chloro-5-(trifluoromethyl)-2-pyridinyl]methyl}-5-thienylacetamide], the “efficacy against Peronospora parasitica” value in assay [1] is recorded as “no efficacy”. In addition, the “effectiveness on Alternaria brassicae” value in assay [2] is reported as “poor efficacy”. In addition, the “effectiveness on Botrytis cinerea” value in assay [3] was “no efficacy”. On to `CCNC(=O)C(Cc1ncc(C(F)(F)F)cc1Cl)NC(=O)c1ccc(Cl)cc1` (stereo not drawn) [compound 306, N-{1-ethylcarbamoyl-2-[3-chloro-5-(trifluoromethyl)-2-pyridinyl]ethyl}-4-chlorobenzamide], for which the “effectiveness on Botrytis cinerea” value in assay [3] is recorded as “zero effectiveness”. As to `CCNC(=O)C(Cc1ncc(C(F)(F)F)cc1Cl)NC(=O)c1ccccc1Br` (stereo not drawn) [compound 310, N-{1-ethylcarbamoyl-2-[3-chloro-5-(trifluoromethyl)-2-pyridinyl]ethyl}-2-bromobenzamide], the “effectiveness on Botrytis cinerea” value in assay [3] is recorded as “zero effectiveness”.

Turning to `CNC(=O)C(Cc1ncc(C(F)(F)F)cc1Cl)NC(=O)c1ccc(OC)cc1` (stereo not drawn) [compound 315, N-{1-methylcarbamoyl-2-[3-chloro-5-(trifluoromethyl)-2-pyridinyl]ethyl}-4-methoxybenzamide], in assay [3], the “effectiveness on Botrytis cinerea” value is “zero effectiveness”. Consider `CNC(=O)C(Cc1ncc(C(F)(F)F)cc1Cl)NC(=O)c1ccccc1` (stereo not drawn) [compound 314, N-{1-methylcarbamoyl-2-[3-chloro-5-(trifluoromethyl)-2-pyridinyl]ethyl}-benzamide], for which, in assay [3], the “effectiveness on Botrytis cinerea” value is reported as “zero effectiveness”. For the molecule `CCNC(=O)C(Cc1ncc(C(F)(F)F)cc1Cl)NC(=O)c1cccc([N+](=O)[O-])c1` (stereo not drawn) [compound 307, N-{1-ethylcarbamoyl-2-[3-chloro-5-(trifluoromethyl)-2-pyridinyl]ethyl}-3-nitrobenzamide], the “effectiveness on Alternaria brassicae” value in assay [2] is on record as “poor effectiveness”. The “effectiveness on Botrytis cinerea” value in assay [3] was “zero effectiveness”.

For the molecule `CCNC(=O)C(Cc1ncc(C(F)(F)F)cc1Cl)NC(=O)c1ccccc1` (stereo not drawn) [compound 304, N-{1-ethylcarbamoyl-2-[3-chloro-5-(trifluoromethyl)-2-pyridinyl]-ethyl}-benzamide], the “effectiveness on Botrytis cinerea” value in assay [3] is “zero effectiveness”. Turning to `CNC(=O)C(Cc1ncc(C(F)(F)F)cc1Cl)NC(=O)c1ccc(-c2ccccc2)cc1` (stereo not drawn) [compound 316, N-{1-methylcarbamoyl-2-[3-chloro-5-(trifluoromethyl)-2-pyridinyl]-ethyl}-4-phenylbenzamide], the “effectiveness on Alternaria brassicae” value in assay [2] was “poor effectiveness”. The “effectiveness on Botrytis cinerea” value in assay [3] was “zero effectiveness”.
